This passage reports IC50 results from patent publication US20180251431A1 (VERTEX PHARMACEUTICALS INCORPORATED, priority 2016, published 2018).

Molecules are shown by their SMILES. pIC50: −log10 of the molar value. Some results are limits rather than exact numbers.

In one test the test system is HEK293 cells. The test is described as follows: HEK293 VLCFA-LPC IC50 determination (13C-labeled C26:0 LPC by UHPLC/MS). It is filed as cell-based, human. To be noted: Homo sapiens, HEK293, 48 h, average of one or more replicates; 13C-labeled C26:0 LPC, 48 hours; read-out: Average HEK293 IC50. The procedure, abridged:
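Suspension HEK293 cells (final 0.5 million/mL after mixing with equal volume) incubated 48 hours with compound plus 13C-acetate (1.0 mg/mL in added media), shaking at 37° C. Lipids extracted with hexane/isopropanol or methanol, C13:0 LPC standard. UHPLC/MS of 13C-labeled C26:0 LPC (638.500/104.100 m/z); IC50 by four-parameter fit.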
With `Cc1cc(-n2ccc(NC(=O)C3(c4ccccc4F)CC3)n2)cnc1F` [Compound 376, N-[1-(6-fluoro-5-methyl-3-pyridyl)pyrazol-3-yl]-1-(2-fluorophenyl)cyclopropanecarboxamide], the pIC50 – broadly, the IC50 on a negative log10 scale, so that one unit is a factor of ten – was 7.19. With `CN(C(=O)Cc1ccccc1F)c1ccn(-c2ccccc2)n1` [Compound 362, 2-(2-fluorophenyl)-N-methyl-N-(1-phenyl-1H-pyrazol-3-yl)acetamide], the pIC50 was less than 5.30. On the same count and under the same terms, the same measure for `O=C(Nc1ccn(-c2cncc(F)c2)n1)[C@@]1(c2ncccc2F)CC12CC2` (single isomer, unassigned) [Compound 500]: 6.37; for `CC(C)Oc1cc(-n2ccc(NC(=O)C3(c4ccccc4F)CC3)n2)ccn1` [Compound 342, 1-(2-fluorophenyl)-N-[1-(2-isopropoxy-4-pyridyl)pyrazol-3-yl]cyclopropanecarboxamide]: less than 5.30; for `Cc1nnc(-n2ccc(NC(=O)C3(c4ccccc4F)CC3)n2)s1` [Compound 404, 1-(2-fluorophenyl)-N-[1-(5-methyl-1,3,4-thiadiazol-2-yl)pyrazol-3-yl]cyclopropanecarboxamide]: less than 5.30. Same read-out and setting: the same measure for `N#Cc1cc(-n2ccc(NC(=O)C3(c4ccccc4F)CC3)n2)ccn1` [Compound 329, N-[1-(2-cyano-4-pyridyl)pyrazol-3-yl]-1-(2-fluorophenyl)cyclopropanecarboxamide]: 5.44; for `N#Cc1ccc(-n2ccc(NC(=O)C3(c4ccccc4F)CC3)n2)cn1` [Compound 326, N-[1-(6-cyano-3-pyridyl)pyrazol-3-yl]-1-(2-fluorophenyl)cyclopropanecarboxamide]: less than 5.30.

As to `CN(C(=O)C1(c2ccccc2F)CC1)c1ccn(-c2ccnc(F)c2)n1` [Compound 363, 1-(2-fluorophenyl)-N-(1-(2-fluoropyridin-4-yl)-1H-pyrazol-3-yl)-N-methylcyclopropane-1-carboxamide], the pIC50 was less than 5.30. Consider `O=C(Nc1ccn(-c2cnns2)n1)C1(c2ccccc2F)CC1` [Compound 388, 1-(2-fluorophenyl)-N-[1-(thiadiazol-5-yl)pyrazol-3-yl]cyclopropanecarboxamide], for which the negative logarithm of the IC50 (pIC50) was 7.43.

The test is the same for the next values; noted with them: Homo sapiens, HEK293, HEK293 cells; average of one or more replicates; read-out: Average HEK293 IC50.
As for `O=C(Cn1cccn1)Nc1ccn(-c2ccnc(F)c2)n1` [Compound 283, N-[1-(2-fluoro-4-pyridyl)pyrazol-3-yl]-2-pyrazol-1-yl-acetamide], the pIC50 is less than 5.30. Still for that read-out and setting: the same measure for `O=C(Cc1ccccc1)Nc1ccn(-c2cncc(F)c2)n1` [Compound 205, N-[1-(5-fluoro-3-pyridyl)pyrazol-3-yl]-2-phenyl-acetamide]: 6.14; for `O=C(Nc1ccn(-c2cc(F)ccc2F)n1)C1(c2ccccc2F)CC1` [Compound 161, N-[1-(2,5-difluorophenyl)pyrazol-3-yl]-1-(2-fluorophenyl)cyclopropanecarboxamide]: 6.01. On the same count and under the same terms, the same measure for `O=C(Nc1ccn(-c2ccccc2)n1)C1(c2cccc(Cl)c2)CC1` [Compound 19, 1-(3-chlorophenyl)-N-(1-phenylpyrazol-3-yl)cyclopropanecarboxamide]: 6.60; for `CCOc1ccc(-n2ccc(NC(=O)C3(c4ccccc4F)CC3)n2)cn1` [Compound 430, N-[1-(6-ethoxy-3-pyridyl)pyrazol-3-yl]-1-(2-fluorophenyl)cyclopropanecarboxamide]: less than 5.30. The same measure, in the same setting: the same measure for `O=C(Cc1ccccc1)Nc1ccn(-c2ccc(Cl)nc2)n1` [Compound 103, N-[1-(6-chloro-3-pyridyl)pyrazol-3-yl]-2-phenyl-acetamide]: 6.24; for `O=C(Cc1ccccc1F)Nc1ccn(-c2ccc(Cl)c(F)c2)n1` [Compound 195, N-[1-(4-chloro-3-fluoro-phenyl)pyrazol-3-yl]-2-(2-fluorophenyl)acetamide]: less than 5.70.

As for `O=C(Nc1ccn(-c2cncc(F)c2)n1)C1(c2ccccc2)CC1` [Compound 201, N-[1-(5-fluoro-3-pyridyl)pyrazol-3-yl]-1-phenyl-cyclopropanecarboxamide], the pIC50 was 7.34. The same measure, in the same setting: the same measure for `Cc1cc(-n2ccc(NC(=O)C3(c4ccc(F)cc4)CC3)n2)ccn1` [Compound 108, 1-(4-fluorophenyl)-N-[1-(2-methyl-4-pyridyl)pyrazol-3-yl]cyclopropanecarboxamide]: 6.11; for `O=C(Nc1ccn(-c2cccnn2)n1)C1(c2ccccc2F)CC1` [Compound 239, 1-(2-fluorophenyl)-N-(1-pyridazin-3-ylpyrazol-3-yl)cyclopropanecarboxamide]: 6.52. As for `O=C(Cn1cccn1)Nc1ccn(-c2ccccc2)n1` [Compound 289, N-(1-phenylpyrazol-3-yl)-2-pyrazol-1-yl-acetamide], the pIC50 is less than 5.30.

`O=C(Cc1ccccc1)Nc1ccn(-c2ccncc2F)n1` [Compound 140, N-[1-(3-fluoro-4-pyridyl)pyrazol-3-yl]-2-phenyl-acetamide]: the pIC50 was 5.96.

Regarding `COc1ncc(-n2ccc(NC(=O)C3(c4ncccc4F)CC34CC4)n2)cc1F` (centres unmarked) [Compound 525, N-[1-(5-fluoro-6-methoxy-3-pyridyl)pyrazol-3-yl]-2-(3-fluoro-2-pyridyl)spiro[2.2]pentane-2-carboxamide], the pIC50 was 6.17.

For `COc1cc(-n2ccc(NC(=O)C3(c4cnccn4)CC3)n2)ccn1` [Compound 491, N-[1-(2-methoxy-4-pyridyl)pyrazol-3-yl]-1-pyrazin-2-yl-cyclopropanecarboxamide], the pIC50 is less than 5.30. Consider `CCOc1ccc(CC(=O)Nc2ccn(-c3ccccc3)n2)cc1` [Compound 47, 2-(4-ethoxyphenyl)-N-(1-phenylpyrazol-3-yl)acetamide], for which the pIC50 is less than 5.30.

For the compound `O=C(Cc1ccccc1F)Nc1ccn(-c2ccc(F)cc2)n1` [Compound 183, 2-(2-fluorophenyl)-N-[1-(4-fluorophenyl)pyrazol-3-yl]acetamide], the pIC50 is 6.77. Regarding `CC1(C)CC1(C(=O)Nc1ccn(-c2ccc(F)c(F)c2)n1)c1ncccc1F` (centres unmarked) [Compound 514, N-[1-(3,4-difluorophenyl)pyrazol-3-yl]-1-(3-fluoro-2-pyridyl)-2,2-dimethyl-cyclopropanecarboxamide], the negative-log IC50 (pIC50) was 5.74. For `CCOc1ccc(C2(C(=O)Nc3ccn(-c4ccnc(F)c4)n3)CC2)cc1` [Compound 246, 1-(4-ethoxyphenyl)-N-[1-(2-fluoro-4-pyridyl)pyrazol-3-yl]cyclopropanecarboxamide], the pIC50 was 5.55. The same measure, in the same setting: the same measure for `O=C(Nc1ccn(-c2ccnc(F)c2)n1)C1(c2ccccc2)COC1` [Compound 149, N-[1-(2-fluoro-4-pyridyl)pyrazol-3-yl]-3-phenyl-oxetane-3-carboxamide]: 6.18; for `CC1(C)CC1(C(=O)Nc1ccn(-c2cncc(Cl)c2)n1)c1ncccc1F` (centres unmarked) [Compound 512, N-[1-(5-chloro-3-pyridyl)pyrazol-3-yl]-1-(3-fluoro-2-pyridyl)-2,2-dimethyl-cyclopropanecarboxamide]: 5.96; for `O=C(Cc1ccccc1)Nc1ccn(-c2ccc(C(F)(F)F)cc2)n1` [Compound 153, 2-phenyl-N-[1-[4-(trifluoromethyl)phenyl]pyrazol-3-yl]acetamide]: less than 5.30.

`O=C(Nc1ccn(-c2ccnc(F)c2)n1)[C@@]1(c2ccccc2)CC12CCCC2` [Compound 150, (2S)-N-[1-(2-fluoro-4-pyridyl)pyrazol-3-yl]-2-phenyl-spiro[2.4]heptane-2-carboxamide]: the pIC50 was more than 7.30.

`O=C(Nc1ccn(-c2cncc(F)c2)n1)C1(c2ccc(F)cn2)CC1` [Compound 466, 1-(5-fluoro-2-pyridyl)-N-[1-(5-fluoro-3-pyridyl)pyrazol-3-yl]cyclopropanecarboxamide]: the pIC50 was 6.25.

As for `Cn1cncc1-n1ccc(NC(=O)C2(c3ccccc3F)CC2)n1` [Compound 426, 1-(2-fluorophenyl)-N-[1-(3-methylimidazol-4-yl)pyrazol-3-yl]cyclopropanecarboxamide], the pIC50 is less than 5.70. With `COc1cnccc1-n1ccc(NC(=O)C2(c3ccccc3F)CC2)n1` [Compound 411, 1-(2-fluorophenyl)-N-[1-(3-methoxy-4-pyridyl)pyrazol-3-yl]cyclopropanecarboxamide], the pIC50 was less than 5.30. Still for that read-out and setting: the same measure for `O=C(Nc1ccn(-c2cc(F)cc(F)c2)n1)C1(c2ncccc2F)CC1` [Compound 461, N-[1-(3,5-difluorophenyl)pyrazol-3-yl]-1-(3-fluoro-2-pyridyl)cyclopropanecarboxamide]: 7.12; for `O=C(Nc1ccn(-c2ccccc2F)n1)C1(c2ccccc2)CC1` [Compound 188, N-[1-(2-fluorophenyl)pyrazol-3-yl]-1-phenyl-cyclopropanecarboxamide]: 6.85; for `O=C(Nc1ccn(-c2ccccc2)n1)C1(c2ccc(F)cc2)CC1` [Compound 13, 1-(4-fluorophenyl)-N-(1-phenylpyrazol-3-yl)cyclopropanecarboxamide]: 7.09. With `Cc1ccc(-n2ccc(NC(=O)C3(c4ccccc4F)CC3)n2)cn1` [Compound 120, 1-(2-fluorophenyl)-N-[1-(6-methyl-3-pyridyl)pyrazol-3-yl]cyclopropanecarboxamide], the negative logarithm of the IC50 (pIC50) is 6.21. The same measure, in the same setting: the figure for `CSCC(C(=O)Nc1ccn(-c2ccccc2)n1)c1ccccc1` (centres unmarked) [Compound 170, 3-methylsulfanyl-2-phenyl-N-(1-phenylpyrazol-3-yl)propanamide] is less than 5.30; for `O=C(Nc1ccn(-c2cccc(Cl)c2)n1)C1(c2ncccc2F)CC1` [Compound 418, N-(1-(3-chlorophenyl)-1H-pyrazol-3-yl)-1-(3-fluoropyridin-2-yl)cyclopropane-1-carboxamide] it is 7.00; for `Nc1ncc(-n2ccc(NC(=O)C3(c4ccccc4F)CC3)n2)cc1F` [Compound 399, N-[1-(6-amino-5-fluoro-3-pyridyl)pyrazol-3-yl]-1-(2-fluorophenyl)cyclopropanecarboxamide] it is 6.55.
